Tested on: H358 cells
Experiment: Cell activity experiment: activity test of H358 cells (MTT, 5 days)
Type: cell-based
Conditions: 5 days incubation, absorbance 492 nm
Experimental: Example: Cell Activity Experiment
1. Cells: H358 purchased from Shanghai EK-Bioscience Biotechnology Co., Ltd.
2. Reagents: RPMI 1640 medium, Tryple, MTT (5 mg/mL), DMSO, and DPBS.
3. Instruments: an incubator at 37° C. and 5% CO2, a UTRAO microplate reader, a biosafety cabinet, a cell counting plate, and an Optec optical microscope.
4. Experimental consumables: 96-well plate Item No.: 3599, and 96-well round-bottomed dispensing plate.
Experimental Steps of Activity Test of H358 Cells:
1. Plating: Cells in the logarithmic growth phase were digested with Tryple and terminated with a fresh medium, and the cells were counted; and the cell concentration was adjusted to 55555 cells/mL with a fresh medium, wherein 90 μL was added to each well, and those on edges were filled with sterile DPBS.
2. The plate was incubated in the incubator at 37° C. and 5% CO2 for 24 h, so that the cells cover the bottom of the well by about 50%.
3. Drug preparation for experimental group: The drug was dissolved in DMSO to prepare a 20 mmol/L stock solution; the stock solution was further diluted with DMSO to 2 mmol/L, which was serially 3-fold diluted to form an […]-concentration gradient, resulting in a 200× serial compound solution; 10 μL of the serial compound solution was taken and added to 190 μLμL of RPMI1640 medium to obtain a 10× serial compound solution; and 10 μL of the 10× compound solution was taken and added to 90 μL 96-well cell culture plate, with three replicates per grade. The concentration gradient of the compound in the 96-well cell culture plate was […], 1.524158 nM, 4.572474 nM, 13.717420 nM, 41.152260 nM, 123.456800 nM, 370.370400 nM, 1111.111000 nM, 3333.333000 nM, and 10000.000000 nM, with 100 μL per well, and the final concentration of DMSO was 0.5%.
The control group contained the same volume of solvent as the experimental group and was diluted with a complete medium, with 100 μL per well.
4. Incubation was carried out for 5 days in an incubator with 5% CO2 at 37° C.
5. After 5 days, 10 μL of an MTT solution (5 mg/mL) was added to each well, and the culture was continued for 4 h.
6. The culture was terminated, and the culture solution was carefully sucked out of the well.
7. 150 μL of dimethyl sulfoxide (DMSO) was added to each of the null wells in the experimental group and the control group; and after shaking at a medium speed for 10 s, the crystal was fully dissolved, and the optical absorbance value thereof was measured at a wavelength of 492 nm.

SMILES	IC50 (Homo sapiens, NCI-H358, 120 h)	IC50
C=C(F)C(=O)N1CCN(c2nc(OCC34CCCN3CCC4)nc3cc(-c4cncc5cccc(Cl)c45)ccc23)C[C@@H]1CC#N [Example 131, (S)-2-(4-(7-(5-chloroisoquinolin-4-yl)-2-((tetrahydro-1H-pyrrolizin-7a(5H)-yl)methoxy)quinazolin-4-yl)-1-(2-fluoroacryloyl)piperazin-2-yl)acetonitrile]	16 nM	–
C=CC(=O)N1CCN(c2nc(OC[C@@]34CCCN3C[C@H](F)C4)nc3c(F)c(-c4cccc5cccc(Cl)c45)c(Cl)cc23)C[C@@H]1CC#N [Example 510]	130 nM	–
C=C(F)C(=O)N1CCN(c2nc(OC[C@@H]3CCCN3C)nc3cc(N4CCCc5cccc(Cl)c54)ccc23)C[C@@H]1CC#N [Example 619, 2-((S)-4-(7-(8-chloro-3,4-dihydroquinoline-1(2H)-yl)-2-(((S)-1-methylpyrrolidin-2-yl)methoxy)quinazolin-4-yl)-1-(2-fluoroacryloyl)piperazin-2-yl)acetonitrile]	496 nM	–
C=CC(=O)N1CCN(c2nc(OC[C@@]34CCCN3C[C@H](F)C4)nc3nc(-c4cccc5cccc(Cl)c45)ccc23)C[C@@H]1CC#N [Example 260]	10 nM	–
C=CC(=O)N1CCN(c2nc(OC[C@@H]3CCCN3C)nc3cc(-c4cccc5c4C4CC4C5)ccc23)C[C@@H]1CC#N (stereo partly shown) [Example 536]	30 nM	–
C=CC(=O)N1CC[C@@H]2[C@H]1CN2c1nc(OC[C@@H]2CCCN2C)nc2cc(-c3cccc4ccc(F)c(Cl)c34)ccc12 [Example 101, 1-((1R,5R)-6-(7-(8-chloro-7-fluoronaphthalen-1-yl)-2-(((S)-1-methylpyrrolidin-2-yl)methoxy)quinazolin-4-yl)-2,6-diazabicyclo[3.2.0]hept-2-yl)prop-2-en-1-one]	5 nM	–
C=C(F)C(=O)N1CCN(c2nc(OCC3(CN4CCCC4)CC3)nc3c(F)c(-c4cccc5c4C4CC4C5)ncc23)C[C@@H]1CC#N (single isomer, unassigned) [Example 867]	5.9 nM	–
C=CC(=O)N1CC[C@@H]2[C@H]1CN2c1nc(OC[C@@]23CCCN2C[C@H](F)C3)nc2c(F)c(-c3ccc(F)c4c3CCCC4)ncc12 [Example 31]	8 nM	–
C=C(F)C(=O)N1CC[C@@H]2[C@H]1CN2c1nc(OCC23CCCN2CCC3)nc2c(F)c(-c3cccc4c3CCCC4)ncc12 [Example 14, 2-fluoro-1-((1R,5R)-6-(8-fluoro-2-((tetrahydro-1H-pyrrolizin-7a(5H)-yl)methoxy)-7-(5,6,7,8-tetrahydronaphthalen-1-yl)pyridino[4,3-d]pyrimidin-4-yl)-2,6-diazabicyclo[3.2.0]hept-2-yl)prop-2-en-1-one]	30 nM	–
C=CC(=O)N1CC[C@H]2[C@H]1CN2c1nc(OCC23CCCN2CCC3)nc2cc(-c3cccc4cccc(Cl)c34)c(Cl)cc12 [Example 471, 1-((1R,5S)-6-(6-chloro-7-(8-chloronaphthalen-1-yl)-2-((tetrahydro-1H-pyrrolizin-7a(5H)-yl)methoxy)quinazolin-4-yl)-2,6-diazabicyclo[3.2.0]hept-2-yl)prop-2-en-1-one]	45 nM	–
C=CC(=O)N1CC[C@@H]2[C@H]1CN2c1nc(OC[C@@H]2C[C@@H](F)CN2C)nc2c(F)c(-c3cccc4c3CCCC4)ncc12 [Example 11]	26 nM	–
C=CC(=O)N1CCN(c2nc(OC[C@@]34CCCN3C[C@H](F)C4)nc3c(F)c(-c4ccc(F)c5c4CCCC5)ncc23)C[C@@H]1CC#N [Example 23]	3 nM	–
C=CC(=O)N1CCC2[C@H]1CN2c1nc(OC[C@@H]2CCCN2C)nc2c(F)c(-c3cccc4ccc(F)c(Cl)c34)ccc12 (stereo partly shown) [Example 371]	6 nM	–
C=CC(=O)N1CCN(c2nc(OC[C@@H]3C[C@@H](F)CN3C)nc3c(F)c(-c4cncc5c4CCCC5)ncc23)C[C@@H]1CC#N [Example 35]	15 nM	–
C=C(F)C(=O)N1CCN(c2nc(OCC34CCCN3CCC4)nc3cc(-c4cccc5ccc(F)c(Cl)c45)ccc23)C[C@@H]1CC#N [Example 98, (S)-2-(4-(7-(8-chloro-7-fluoronaphthalen-1-yl)-2-((tetrahydro-1H-pyrrolizin-7a(5H)-yl)methoxy)quinazolin-4-yl)-1-(2-fluoroacryloyl)piperazin-2-yl)acetonitrile]	8 nM	–
C=CC(=O)N1CC[C@@H]2[C@H]1CN2c1nc(OC[C@@H]2C[C@@H](F)CN2C)nc2c(F)c(-c3ccc(F)c4c3CCCC4)ncc12 [Example 27]	15 nM	–
C=CC(=O)N1CCN(c2nc(OC[C@@]34CCCN3C[C@H](F)C4)nc3c(OC4CC4)c(-c4c(C)ccc5[nH]ncc45)c(Cl)cc23)C[C@@H]1CC#N [Example 933]	0.3 nM	–

SMILES	IC50 (Homo sapiens, NCI-H358, 120 h)	IC50
C=CC(=O)N1CCC2[C@H]1CN2c1nc(OCC23CCCN2CCC3)nc2c(F)c(-c3cccc4c3CCCC4)ccc12 (stereo partly shown) [Example 372]	5 nM	–
C=CC(=O)N1CCN(c2nc(Oc3cccc4c3CCN(C)C4)nc3cc(-c4cccc5c4CCCC5)ccc23)C[C@@H]1CC#N [Example 109]	287 nM	–
C=C(F)C(=O)N1CCN(c2nc(OCC34CCCN3CCC4)nc3cc(-c4cncc5c4CCCC5)ccc23)C[C@@H]1CC#N [Example 147]	18 nM	–
C=CC(=O)N1CCN(c2nc(OC[C@@H]3C[C@@H](F)CN3C)nc3c(F)c(-c4cccc5c4CCCC5)c(F)cc23)C[C@@H]1CC#N [Example 432]	2.4 nM	–
C=C(F)C(=O)N1CCN(c2nc(OC[C@@H]3C[C@@H](F)CN3C)nc3cc(-c4cccc5ccc(F)c(Cl)c45)ccc23)C[C@@H]1CC#N [Example 96]	25 nM	–
C=C(F)C(=O)N1CCN(c2nc(OCC34CCCN3CCC4)nc3c(F)c(-c4cccc5c4[C@@H]4C[C@@H]4C5)ncc23)C[C@@H]1CC#N [Example 66, 2-((S)-4-(8-fluoro-2-((tetrahydro-1H-pyrrolizin-7a(5H)-yl)methoxy)-7-((1aR,6aR)-1,1a,6,6a-tetrahydrocyclopropa[a]inden-2-yl)pyridino[4,3-d]pyrimidin-4-yl)-1-(2-fluoroacryloyl)piperazin-2-yl)acetonitrile]	9 nM	–
C=C(F)C(=O)N1CCN(c2nc(OC[C@@H]3C[C@@H](F)CN3C)nc3cc(-c4cccc5c4CCCC5)ccc23)C[C@@H]1CC#N [Example 113]	150 nM	–
C=C(F)C(=O)N1CCN(c2nc(OCC34CCCN3C[C@H](F)C4)nc3cc(-c4cncc5cccc(Cl)c45)ccc23)C[C@@H]1CC#N (stereo partly shown) [Example 133]	8 nM	–
C=C(F)C(=O)N1CCN(c2nc(OCC34CCCN3CCC4)nc3c(F)c(-c4cccc5c4C4CC4C5)ncc23)C[C@@H]1CC#N (stereo partly drawn) [Example 62, 2-((2S)-4-(8-fluoro-2-((tetrahydro-1H-pyrrolizin-7a(5H)-yl)methoxy)-7-(1,1a,6,6a-tetrahydrocyclopropa[a]inden-2-yl)pyridino[4,3-d]pyrimidin-4-yl)-1-(2-fluoroacryloyl)piperazin-2-yl)acetonitrile]	8 nM	–
C=CC(=O)N1CCN(c2nc(OC[C@@H]3C[C@@H](F)CN3C)nc3c(F)c(-c4cncc5cccc(Cl)c45)ccc23)C[C@@H]1CC#N [Example 160]	5 nM	–
C=CC(=O)N1CCN(c2nc(OC[C@@]34CCCN3C[C@H](F)C4)nc3c(F)c(-c4cccc5c4[C@H]4C[C@H]4C5)ncc23)C[C@@H]1CC#N [Example 69]	1.8 nM	–
C=CC(=O)N1CCN(c2nc(OC[C@@H]3C[C@@H](F)CN3C)nc3cc(-c4cncc5c4CCCC5)ccc23)C[C@@H]1CC#N [Example 144]	25 nM	–
C=C(F)C(=O)N1CCN(c2nc(OCC3(CN4CCCC4)CC3)nc3c(F)c(-c4cccc5c4C4CC4C5)ccc23)C[C@@H]1CC#N (single isomer, unassigned) [Example 871]	–	9 nM
C=CC(=O)N1CCN(c2nc(OCC34CCCN3C[C@H](F)C4)nc3cc(-c4cncc5cccc(Cl)c45)ccc23)C[C@@H]1CC#N (stereo partly shown) [Example 132]	3 nM	–
C=CC(=O)N1CCN(c2nc(OCC34CCCN3C[C@H](F)C4)nc3cc(-c4cncc5c4CCCC5)ccc23)C[C@@H]1CC#N (stereo partly shown) [Example 148]	5 nM	–
C=C(F)C(=O)N1CCN(c2nc(OC[C@@]34CCCN3C[C@H](F)C4)nc3c(F)c(-c4cccc5c4CCCC5)ncc23)C[C@@H]1CC#N [Example 8, 2-((S)-4-(8-fluoro-2-(((2R,7aS)-2-fluorotetrahydro-1H-pyrrolizin-7a(5H)-yl)methoxy)-7-(5,6,7,8-tetrahydronaphthalen-1-yl)pyridino[4,3-d]pyrimidin-4-yl)-1-(2-fluoroacryloyl)piperazin-2-yl)acetonitrile]	0.64 nM	–
C=C(F)C(=O)N1CCN(c2nc(OC[C@@H]3C[C@@H](F)CN3C)nc3cc(-c4cncc5c4CCCC5)ccc23)C[C@@H]1CC#N [Example 145]	102 nM	–
